Experimental data taken from patent US20130045491A1, “METHODS FOR ACTIVATING T CELLS” (priority 2011, published 2013).

Assays:
[1] = tested on: resting CCR6^+CD45RO^+CD25^− TM cells; test: Cytokine expression in resting CCR6+ memory T cells stimulated with cytokines without TCR stimulation; assay type: cell-based, human
Procedure: Peripheral Blood Mononuclear Cells (PBMCs) from healthy individuals (New York Blood Center, New York, N.Y.) were prepared using Ficoll-paque plus (GE Amersham, Uppsala, Sweden). Whole blood samples from rheumatoid arthritis patients were purchased from Bioreclamation (New York, N.Y.) and were processed similar to healthy donor blood. All healthy donor and patient samples were consented prior to purchase, were none-identifiable and approved by institutional human subjects board. CD4^+ T cells were isolated using Dynal CD4 Positive Isolation Kit (Invitrogen, Carlsbad, Calif.) directly from purified PBMCs and were >99% pure. CD4^+ T cells were sorted by FACS ARIA cell sorter (BD, San Jose, Calif.) into CD45RO^+ CD25^− memory T (TM) cells. […] […] […] To determine the fold expansion, CCR6^+IL-17^+ or CCR6^+IL-17^− subsets were labeled with CFSE (Molecular Probes, Eugene, Oreg.) or eFluor 670 (eBioscience, San Diego, Calif.), respectively, as previously described (Oswald-Richter, et al., PLoS Biol 2004; 2: E198). […] In the experiments using PI-3K signaling inhibitors, cells were treated with PI-3K specific inhibitor, LY294002 (EMD, Gibbstown, N.J.), or Akt specific inhibitor, AKTi-1/2 (EMD), for 2 days before PMA and Ionomycin restimulation.

[2] = tested on: CCR6^+IL-17^− TM cells; test: IL-17 induction in activated, FACS-sorted CCR6+IL-17- memory T cells cultured with cytokines, intracellular staining after PMA/ionomycin; assay type: cell-based, human; conditions: for IL-17 expression in CCR6+IL-17- T cells: cultured 6 days in the cytokine, compared with IL-2, FIG. 1e
Procedure: (§1) Peripheral Blood Mononuclear Cells (PBMCs) from healthy individuals (New York Blood Center, New York, N.Y.) were prepared using Ficoll-paque plus (GE Amersham, Uppsala, Sweden). Whole blood samples from rheumatoid arthritis patients were purchased from Bioreclamation (New York, N.Y.) and were processed similar to healthy donor blood. All healthy donor and patient samples were consented prior to purchase, were none-identifiable and approved by institutional human subjects board. CD4^+ T cells were isolated using Dynal CD4 Positive Isolation Kit (Invitrogen, Carlsbad, Calif.) directly from purified PBMCs and were >99% pure. CD4^+ T cells were sorted by FACS ARIA cell sorter (BD, San Jose, Calif.) into CD45RO^+ CD25^− memory T (TM) cells. TM cells were activated either by anti-CD3 and anti-CD28 (aCD3/aCD28) coated beads (1:4 beads:cells ratio) for 18-24 hours, or by Phorbol 12-myristate 13-acetate (PMA) and ionomycin for 4 hours and further FACS sorted based on CCR6 and IL-17 expression into CCR6^−IL-17^−, CCR6^+IL-17^+, or CCR6^+ IL-17^− subsets (as determined by secretion assay labeling, see below). Sorted cells (>99% pure) were cultured in serum-free Xvivo-15 medium (Lonza, Wakersville, Md.) at 37° C. and 5% CO2 for 6-7 days prior to restimulation with PMA and ionomycin (see below). […] To determine the fold expansion, CCR6^+IL-17^+ or CCR6^+IL-17^− subsets were labeled with CFSE (Molecular Probes, Eugene, Oreg.) or eFluor 670 (eBioscience, San Diego, Calif.), respectively, as previously described (Oswald-Richter, et al., PLoS Biol 2004; 2: E198). […] In the experiments using PI-3K signaling inhibitors, cells were treated with PI-3K specific inhibitor, LY294002 (EMD, Gibbstown, N.J.), or Akt specific inhibitor, AKTi-1/2 (EMD), for 2 days before PMA and Ionomycin restimulation.
Manufacturer's protocols (Miltenyi Biotec) for labeling human and mouse IL-17 secreting cells were followed. Briefly, activated T-cells were washed in cold buffer (PBS+0.5% BSA+2 mM EDTA) and labeled with IL-17 catch reagent for 5 minutes on ice. Pre-warmed medium was then added and the cells were incubated at 37° C. on a shaker for 45 minutes. For human IL-17 capture experiments, cells were washed once more with cold buffer and PE-conjugated IL-17 detection antibodies were added and incubated on ice for 10 minutes. For mouse IL-17 capture experiments, all steps were identical, except that the IL-17 detection antibody used was biotinylated, and a secondary staining step using APC-conjugated streptavidin was used. Cells were then washed and stained with additional cell surface antibodies at room temperature for 20 minutes. These cells were then washed once more with cold buffer, resuspended in serum-free RPMI 1640 medium, filtered and FACS sorted. […]

[3] = tested on: CCR6^+ TM cells; test: Effect of PI-3K/Akt inhibitors on cytokine production of IL-7-cultured CCR6+ memory T cells; assay type: cell-based, human; conditions: one week in IL-7, then inhibitor for 48 hours, restimulation
Procedure: as §1

[4] = tested on: Akt; test: Cytokine-dependent Akt phosphorylation in memory T cells treated with inhibitors; assay type: cell-based, human; conditions: 1-10 μg/mL inhibitor, 48 hours
Procedure: (§2) Peripheral Blood Mononuclear Cells (PBMCs) from healthy individuals (New York Blood Center, New York, N.Y.) were prepared using Ficoll-paque plus (GE Amersham, Uppsala, Sweden). Whole blood samples from rheumatoid arthritis patients were purchased from Bioreclamation (New York, N.Y.) and were processed similar to healthy donor blood. All healthy donor and patient samples were consented prior to purchase, were none-identifiable and approved by institutional human subjects board. CD4^+ T cells were isolated using Dynal CD4 Positive Isolation Kit (Invitrogen, Carlsbad, Calif.) directly from purified PBMCs and were >99% pure. CD4^+ T cells were sorted by FACS ARIA cell sorter (BD, San Jose, Calif.) into CD45RO^+ CD25^− memory T (TM) cells. TM cells were activated either by anti-CD3 and anti-CD28 (aCD3/aCD28) coated beads (1:4 beads:cells ratio) for 18-24 hours, or by Phorbol 12-myristate 13-acetate (PMA) and ionomycin for 4 hours and further FACS sorted based on CCR6 and IL-17 expression into CCR6^−IL-17^−, CCR6^+IL-17^+, or CCR6^+ IL-17^− subsets (as determined by secretion assay labeling, see below). Sorted cells (>99% pure) were cultured in serum-free Xvivo-15 medium (Lonza, Wakersville, Md.) at 37° C. and 5% CO2 for 6-7 days prior to restimulation with PMA and ionomycin (see below). […]

[5] = tested on: TM cells; test: Cell viability of memory T cells treated with inhibitors; conditions: 1-10 μg/mL inhibitor, 48 hours
[6] = tested on: CCR6^− TM cells; test: IL-17 induction in sorted CCR6-IL-17- memory T cells cultured with cytokines; assay type: cell-based, human; conditions: cultured 6 days in the cytokine, restimulation
Procedure: as §2

[7] = tested on: CCR6^− TM cells; test: Cytokine expression in resting CCR6- memory T cells stimulated with IL-7; assay type: cell-based, human
Procedure: as §2

[8] = tested on: RORC; test: RORC / Foxp3 mRNA expression by quantitative PCR; assay type: cell-based, human; conditions: unpublished data
Source text: Purified T cells (1×10^5) were snap frozen in liquid nitrogen for total RNA isolation. Total RNA was isolated using RNeasy isolation kit (Qiagen, Valencia, Calif.) according to the manufacturer's protocol. The extracted RNA was then reverse transcribed into cDNA and quantified using Taqman Cell to CT kit (Applied Biosystems, Carlsbad, Calif.). Taqman primers and probe sets were purchased from Applied Biosystems: Human KLF2 (Hs00360439_g1), RORC (Hs01076120_g1), Il-17a (Hs00174383_m1), b-Actin (Hs03023880_g1), Foxp3 (Hs00203958_m1). Data was acquired and analyzed on ABI 7500 sequence detection system. Quantitative real-time PCR data was analyzed by normalizing Ct values of genes of interest to the Ct values of the housekeeping gene b-Actin.

IL-23: cytokine from R&D Systems, used at 20 ng/mL; known to enhance Th17 cell differentiation
further induction of IL-17 or IL-22 expression in combination with IL-7 ([1]; resting CCR6+ TM cells): did not significantly synergize with IL-7
induction of IL-17/IL-22 expression from CCR6+ human TM cells ([2]; IL-23 in place of γc cytokines, unpublished data): not able to compensate for γc cytokines
IL-17 expression in CCR6+IL-17- T cells [2]: did not influence IL-17 expression

IL-4: another γc-cytokine
IL-17/IL-22 (Th17 cytokine) expression in resting CCR6+ TM cells ([1]; no TCR stimulation, unpublished data): did not promote Th17 cytokine production
TM cell survival ([1]; resting TM cells, unpublished data): did not promote Th17 cytokine production in resting CCR6^+ TM cells or confer TM cell survival

O=c1[nH]c2ccccc2n1C1CCN(Cc2ccc(-c3nc4cc5nc[nH]c5cc4nc3-c3ccccc3)cc2)CC1 [AKTi-1/2]
expression of IFNγ [3]: not affected
expression of IL-4 [3]: less reduced
γc-mediated IL-17/IL-22 induction [3]: repressed γc-mediated IL-17/IL-22 induction in a dose-dependent manner
cytokine-dependent phosphorylation of Akt [4]: downregulated cytokine-dependent phosphorylation of Akt
cell viability [5]: without adversely affecting cell viability

IL-15: γc-cytokine from R&D Systems, used at 20 ng/mL
IL-17 expression in CCR6- TM cells [6]: neither IL-7 nor IL-15 induced IL-17 expression
IL-17 expression in CCR6+IL-17- T cells [2]: induced similar levels of IL-17 expression

IL-7: γc-cytokine from R&D Systems, used at 20 ng/mL
enhancement of IL-17 expression compared to the same cells ex vivo (day 0) ([1]; 10 days, no TCR stimulation): more than 3 fold
enhancement of IL-22 expression compared to the same cells ex vivo (day 0) ([1]; 10 days, no TCR stimulation): more than 3 fold
increase of cells co-expressing IL-22 or IFNγ with IL-17 ([1]; IL-7 stimulation): more than 5 fold
IFNγ production ([1]; resting CCR6+ or CCR6- TM cells cultured with IL-7): almost no impact
IL-17 expression in CCR6- TM cells [6]: neither IL-7 nor IL-15 induced IL-17 expression
IL-17 or IL-22 expression in CCR6- TM cells [7]: failed to express IL-17 or IL-22
RORC mRNA expression levels [8]: neither IL-7 stimulation, nor treatment with PI-3K or Akt inhibitors, nor overexpression of FOXO1 or KLF2 affected RORC mRNA expression levels
IL-17 expression in CCR6+IL-17- T cells [2]: induced similar levels of IL-17 expression
